The text below walks through data of patent EP4699608A1, “COMPOSITION FOR PREVENTING OR TREATING CANCER PAIN” (Maruishi Pharmaceutical Co., Ltd., priority 2023, dated 2024).

In series [1] the test system is rats. In words: Coordinated motor ability (rotarod). The series is classed as in vivo. To be noted: 10 rotations/min, cutoff 180 seconds, compared to control group. On the procedure: Five- to six-week-old male SD-SPF rats (Japan SLC, Inc.) were used in this experiment. The experimental schedule included training using a rotarod (SN445, Shinano Seisakusyo) for 3 days (6 times a day), starting from 3 days before the day of administration. On the day of administration, pre-values (time to stay on the rotarod before the administration of compound A or distilled water) were measured twice, and the rats that spent 180 seconds or more on the rotarod in either of the two measurements were selected. The rats were divided into 3 groups of 6 rats each: a control group (with administration of distilled water (trade name: Otsuka Distilled Water) manufactured by Otsuka Pharmaceutical Factory, Inc.), a 10 mg/kg compound A administration group, and a 30 mg/kg compound A administration group, as shown in Table 3 below. Compound A or distilled water was orally administered to the rats at a dose of 10 mL/kg, and the time to stay on the rotarod was measured 1, 3, 6, and 24 hours after the administration under the test conditions of 10 rotations/min with a cutoff of 180 seconds.
(In the rotarod test animals must keep their balance on a rotating rod.)

A further series concerns mice. In words: Spontaneous locomotor activity (Supermex). To be noted: measured for 30 minutes, 1 or 3 hours after administration, compared to control group. The format is in vivo. On the procedure: Five- to six-week-old male ICR-SPF mice (Japan SLC, Inc.) were divided into 5 groups of 8 mice each: a control group (with administration of distilled water (trade name: Otsuka Distilled Water) manufactured by Otsuka Pharmaceutical Factory, Inc.), two 10 mg/kg compound A administration groups, and two 30 mg/kg compound A administration groups, as shown in Table 2 below. Compound A or distilled water at a dose of 10 mL/kg was orally administered to the mice. One or three hours after the administration of compound A or distilled water, the mice were transferred to a measurement cage, and spontaneous locomotor activity was measured for 30 minutes using Supermex (registered trademark) (Muromachi Kikai Co., Ltd.).

In another series the test system is cancer pain model rats. Briefly: Pain threshold in cancer pain model rats (MRMT-1 bone metastasis model, Dynamic Plantar Aesthesiometer). The format is in vivo. As to conditions: for cancer pain threshold: single dose, day 11 after MRMT-1 transplantation, plantar surface of right hind paw, compared to control group (Dunnett's test, 1%); for pain threshold-time area under the curve (AUC): up to 24 hours after administration, compared to morphine 3 mg/kg subcutaneous. Here is the method: Five-week-old female Crl:CD(SD) SPF rats (Charles River Japan) were injected with MRMT-1 cells (rat breast cancer cells) at 3 × 10^4 cells/20 µL/ body into the medullary cavity at the proximal end of the diaphysis of the right tibia to create a bone metastasis model (day 0). On day 10 after the transplantation of the cancer cells (day 10), the rats were divided into 4 groups of 8 rats each: a control group (with administration of distilled water (trade name: Otsuka Distilled Water) manufactured by Otsuka Pharmaceutical Factory, Inc.), a 10 mg/kg compound A administration group, a 30 mg/kg compound A administration group, and a morphine administration group, as shown in Table 1 below. On day 11 after the transplantation of the cancer cells (day 11), each drug was orally or subcutaneously administered to the rats at a dose of 2 mL/kg. The pain threshold (g) of the plantar surface of the right hind paw was measured using a Dynamic Plantar Aesthesiometer (37450, Ugo Basile) under blinded conditions 1, 3, 6, and 24 hours after the administration. The average value of the pain threshold-time area under the curve (AUC) (g·hr) for 24 hours post-administration was determined for each group.

Series [2] relates to rats. As to conditions: at a dose lower than that required to exert an analgesic effect; cited from earlier work.

For `NC1CCN(c2cccc(Cl)n2)CC1` [compound A, 1-(6-chloropyridin-2-yl)piperidin-4-amine], the “coordinated motor ability (time to stay on the rotarod)” value is recorded as “no significant changes in the coordinated motor ability” in the series on rats [1] (10 mg/kg oral, 1, 3, 6 and 24 hours after administration); “no significant changes in the coordinated motor ability” in the series on rats [1] (30 mg/kg oral, 1, 3, 6 and 24 hours after administration). The “spontaneous locomotor activity (amount of activity)” value with mice (10 mg/kg oral) and with mice (30 mg/kg oral) was “no significant changes in the amount of activity” throughout. For the same compound, the cancer pain threshold entry with cancer pain model rats (10 mg/kg oral) and with cancer pain model rats (30 mg/kg oral) was “significantly increased” in each case. Further, the “pain threshold-time area under the curve (AUC)” value with cancer pain model rats (10 mg/kg oral) and in the series on cancer pain model rats (30 mg/kg oral) was “no statistically significant difference” each time.

With `CC(C)C[C@H](CN)CC(=O)O` [pregabalin, Pregabalin], in the series with rats [2], the “influences on the central nervous system (coordinated motor ability)” value is listed as “inhibits coordinated motor ability”.
